Measurements published in ChEMBL document CHEMBL1201862, “PubChem BioAssay data set” (2004).
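Step 1: Grow cells in 96-well plates. Step 2: Expose to compound for 48 hours at 5 concentrations. Step 3: Interpolate endpoints linearly; if unreached, use highest concentration. Abbreviation: GI50, concentration required for 50% inhibition of growth.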 Calls of active or inactive are those of the source. Rule as the data show it: active = GI50 up to about 1.1 µM and inactive = higher.

Key:
Assay in all cases: NCI anticancer screen, dose series, 48 h
[1] = tested on: SNB-19
[2] = tested on: LXFL 529
[3] = tested on: SR
[4] = tested on: DLD-1
[5] = tested on: SN12C
[6] = tested on: KM12
[7] = tested on: SK-MEL-2
[8] = tested on: 786-0
[9] = tested on: K562
[10] = tested on: HCT-116
[11] = tested on: KM-20L2
[12] = tested on: COLO 205
[13] = tested on: MOLT-4
[14] = tested on: LOX IMVI
[15] = tested on: NCI-H522
[16] = tested on: SF-539
[17] = tested on: IGROV-1
[18] = tested on: U-251
[19] = tested on: NCI-H460
[20] = tested on: RPMI-8226
[21] = tested on: UACC-257
[22] = tested on: ACHN
[23] = tested on: DMS-273
[24] = tested on: OVCAR-3
[25] = tested on: EKVX
[26] = tested on: NCI-H226
[27] = tested on: OVCAR-5
[28] = tested on: HT-29
[29] = tested on: M19-MEL
[30] = tested on: OVCAR-8
[31] = tested on: TK-10
[32] = tested on: SF-295
[33] = tested on: HCC 2998
[34] = tested on: UACC-62
[35] = tested on: CCRF-CEM
[36] = tested on: SK-MEL-5
[37] = tested on: RXF 393
[38] = tested on: Malme-3M
[39] = tested on: SK-OV-3
[40] = tested on: SF-268
[41] = tested on: HL-60
[42] = tested on: HOP-62
[43] = tested on: XF498
[44] = tested on: HOP-92
[45] = tested on: CAKI-1
[46] = tested on: HCT-15
[47] = tested on: SK-MEL-28
[48] = tested on: A549
[49] = tested on: DMS-114
[50] = tested on: NCI-H23
[51] = tested on: SW-620
[52] = tested on: M14
[53] = tested on: A498
[54] = tested on: SNB-75
[55] = tested on: UO-31
[56] = tested on: HOP-18
[57] = tested on: SNB-78
[58] = tested on: OVCAR-4

Measured: GI50

Cn1c(C2CC(C)(C)c3c2c2ccccc2n3C)cc2ccccc21 (centres undefined)
inactive: [1] > 304 µM | [2] > 304 µM | [3] > 304 µM | [4] > 304 µM | [5] > 304 µM | [6] > 304 µM | [7] > 304 µM | [8] > 304 µM | [9] > 304 µM | [10] 30.1 µM | [11] > 304 µM | [12] > 304 µM | [13] > 304 µM | [14] > 304 µM | [15] 72.8 µM | [16] 79.4 µM | [17] 225 µM | [18] > 304 µM | [19] > 304 µM | [20] 118 µM | [21] 265 µM | [22] > 304 µM | [23] > 304 µM | [24] 64.6 µM | [25] > 304 µM | [26] 180 µM | [27] > 304 µM | [28] > 304 µM | [29] > 304 µM | [30] > 304 µM | [31] > 304 µM | [32] 195 µM | [33] > 304 µM | [34] > 304 µM | [35] > 304 µM | [36] > 304 µM | [37] > 304 µM | [38] > 304 µM | [39] > 304 µM | [40] > 304 µM | [41] > 304 µM | [42] > 304 µM | [43] 115 µM | [44] 40.9 µM | [45] 192 µM | [47] > 304 µM | [48] > 304 µM | [49] 138 µM | [50] > 304 µM | [51] > 304 µM
> 304 µM: [46]

CN(C)CCNC(=O)C1COc2cc(-c3cc(=O)c4ccccc4o3)ccc2O1 (centres undefined)
inactive: [1] 23.1 µM | [52] 18.1 µM | [3] 15.6 µM | [4] 27.3 µM | [5] 22.4 µM | [8] 18.1 µM | [9] 36.7 µM | [10] 15.1 µM | [11] 22 µM | [12] 16.6 µM | [13] 15.7 µM | [14] 19.6 µM | [15] 16.6 µM | [53] 19 µM | [16] 17.3 µM | [17] 22.2 µM | [18] 20.1 µM | [19] 38.2 µM | [20] 27.9 µM | [21] 18.5 µM | [22] 16.9 µM | [54] 17.8 µM | [23] 18.5 µM | [24] 20.5 µM | [55] 74.3 µM | [25] 53.5 µM | [26] 28.1 µM | [27] 29.6 µM | [28] 16.9 µM | [29] > 100 µM | [30] 23.6 µM | [31] 29.6 µM | [32] 28.4 µM | [33] > 100 µM | [34] 18.8 µM | [35] 30.4 µM | [36] 15.2 µM | [37] 21.4 µM | [38] 21.7 µM | [39] 23.1 µM | [40] 23.7 µM | [41] 23.9 µM | [42] 33 µM | [44] > 100 µM | [56] 24.4 µM | [45] 17.1 µM | [47] 19.5 µM | [57] 24.7 µM | [48] 16.9 µM | [50] 41.1 µM | [58] 17.8 µM | [51] 18.2 µM
27.7 µM: [46]

CC/C=C1\N=C(c2ccc(Cl)cc2)OC1=O
inactive: [1] > 100 µM | [2] > 100 µM | [52] > 100 µM | [4] > 100 µM | [5] > 100 µM | [6] > 100 µM | [7] > 100 µM | [8] > 100 µM | [9] > 100 µM | [11] > 100 µM | [12] > 100 µM | [13] > 100 µM | [14] > 100 µM | [15] > 100 µM | [53] > 100 µM | [16] > 100 µM | [17] > 100 µM | [19] > 100 µM | [20] > 100 µM | [21] > 100 µM | [22] > 100 µM | [54] > 100 µM | [23] > 100 µM | [24] > 100 µM | [55] > 100 µM | [25] > 100 µM | [26] > 100 µM | [27] > 100 µM | [28] > 100 µM | [29] > 100 µM | [30] > 100 µM | [31] > 100 µM | [32] > 100 µM | [33] > 100 µM | [34] > 100 µM | [35] > 100 µM | [37] > 100 µM | [38] > 100 µM | [39] > 100 µM | [40] > 100 µM | [41] > 100 µM | [42] > 100 µM | [43] > 100 µM | [44] > 100 µM | [45] > 100 µM | [47] > 100 µM | [57] > 100 µM | [48] > 100 µM | [49] > 100 µM | [50] > 100 µM | [58] > 100 µM | [51] > 100 µM
> 100 µM: [46]

CC(=O)Oc1cc(OC(C)=O)c2c(c1)OC(c1ccc(OC(C)=O)c(OC(C)=O)c1)CC2=O (centres undefined)
active: [5] 0.0446 µM | [41] 0.458 µM
inactive: [3] 14.7 µM | [10] 63.7 µM | [12] 63.1 µM | [23] 50.6 µM | [55] 38.9 µM | [31] 49.9 µM | [32] 41.6 µM | [33] > 100 µM | [35] 20.4 µM | [36] 55.3 µM | [39] 71.9 µM | [44] 29.8 µM | [56] 30.1 µM | [48] 43.9 µM | [51] 47.5 µM
